This is an account of results in patent publication US11358933B2, “Compounds and methods for inhibiting CYP26 enzymes” (Queen's University at Kingston, priority 2017, dated 2022).

In assay [1] the test system is mouse OP9 bone marrow stromal cells. The assay is described as follows: RA metabolism by OP9 bone marrow stromal cells. The assay is classed as cell-based. As to the method:
These experiments are to assess the ability of primary cells, or cell lines to metabolize RA, and to determine the effect of inhibition of CYP26A1 or CYP26B1 on this ability. For these experiments, cells are plated into 48-well plates and treated with a radiolabeled (^3H) RA. The extent of conversion of this labeled RA to water soluble metabolites is determined as above for in the cell-based inhibitor assay. Primary human bone marrow stromal cells (available from Lonza) were cultured in MyeloCult (available from Stem Cell Technologies, Vancouver, Canada). Mouse OP9 bone marrow stromal cells and MC3T3 pre-osteoblasts were cultured as above. Cells are plated in the appropriate culture medium and allowed to form a monolayer. Cells are then pre-treated with either DMSO (vehicle control) or RA (1 μM) for 24 hours to induce CYP26 expression. Vehicle, and RA induced cells are then exposed to ^3H-RA in the presence or absence of test CYP26 inhibitor to examine the effects on RA metabolism. Cells are incubated for 3 hours with labeled RA, and metabolites extracted and analyzed as above.

The test system of assay [2] is bone marrow mononuclear cells of mice. The assay is described as follows: Induction of RA activity in mouse bone marrow (QPCR of RA target genes). The class given is in vivo. The conditions noted are these: intravenous 40 μg/kg once per day for two days, versus vehicle. The protocol:
Human and mouse bone marrow stromal cells express CYP26 enzymes and Cyp26B1 is highly inducible by RA in these cells. This experiment tests whether exposure of bone marrow to a CYP26 inhibitor is sufficient to raise RA levels in the bone marrow and induce RA-target genes. Mice (8-12 week old) were given intravenous injections (tall vein) on two consecutive days (once per day) of CYP26 inhibitor compound dissolved in 0.9% sodium chloride/0.1% DMSO. Animals were given a dose of 40 μg/kg of inhibitor, or an equal volume of vehicle alone. The morning after the second injection, animals were sacrificed, and bone marrow mononuclear cells were harvested from femurs using Lympholyte-mammal reagent (available from Cedarlane, Burlington, Canada). RNA was then extracted from isolated cells, and RA target gene expression assessed by qPCR.

Assay [3] deals with RA target gene (CYP26A1) expression in MCF-7 cells. Briefly: Enhancement of RA activity assay, QPCR of CYP26A1 expression in MCF-7 cells. The class given is cell-based. The settings on record: 0.1 μM RA plus 1 μM compound, 24, 48, 72 hours. As to the method:
An RA activity assay was used to measure the ability of compounds that inhibit CYP26 to enhance activity of RA, for example, by limiting its catabolism. This assay measured expression of endogenous RA target genes in MCF-7 cells that have been treated with RA and a compound of interest. A compound that inhibits CYP26 activity will have the effect of prolonging the induction of RA target genes in response to RA.
Exponentially growing MCF-7 cells were treated with trypsin, collected and plated into 6-well culture dishes at 300,000 cells per well. Once cells had reached confluency, they were treated with CYP26 inhibitor test compounds or with ketoconazole (a non-selective CYP inhibitor) at a final concentration of 1 μM, or an equal volume of DMSO as a control. […] RNA was harvested using Trizol reagent after 24, 48, and 72 hours of treatment. cDNA was synthesized from 2 μg of total RNA using Superscript III cDNA synthesis kit with random priming (available from Life Technologies, Burlington, ON, Canada). Analysis of expression of the RA inducible CYP26A1 gene was quantified by qPCR normalized against expression of PMM2 with Sybr Select Master Mix (Life Technologies) and gene specific primers in a two-step thermal cycling reaction. Data is provided for a CYP26B1 selective inhibitor, which enhances the induction of CYP26A1. […]

For the next assay, the system named is MC3T3-E1 cells. The assay is described as follows: Osteoblast cell differentiation, MC3T3-E1 cells. The assay is classed as cell-based, mouse. As to the method: These experiments are used to test the ability of CYP26 inhibitors to reduce or block osteoblast differentiation in vitro using a cell culture model. MC3T3-E1 mouse calvarias pre-osteoblasts (available from the American Type Culture Collection) were cultured in MEM-α without ascorbic acid. To induce osteoblast differentiation and matrix mineralization, cells are switched to medium containing ascorbic acid (50 μg/ml) and phosphate (10 mM β-glycerophosphate) and cultured for up to 21 days while changing media every 2-3 days. Cells are also treated with varying concentrations of RA or CYP26 inhibitor compound to assess effects on osteoblast differentiation. At the end of the treatment period, cells in 24-well plates and fixed in 70% ethanol, and stained with Alizarin red (40 mM pH 4.2) to visualize calcified extracellular matrix, indicative of osteoblast differentiation. Stained wells were photographed under a Leica MZ95 dissecting microscope. Other cells grown in 6 well plates are used for RNA extraction, and qPCR analysis of bone differentiation markers and RA target genes.

The test system of another assay is THP-1 cells. The assay is described as follows: Leukemia cell colony formation, THP-1 cells. The class given is cell-based, human. The conditions noted are these: RA plus compound, culture with stromal cells. The protocol:
This experiment is used to test the long-term proliferative ability of hematopoietic stem and progenitor cells as well as leukemic stem cells. Colony forming ability in long term cultures is indicative of stem/progenitor cell activity. […] For these experiments, bone marrow stromal and leukemic cell co-cultures are prepared as described above and treated with RA and/or CYP26 inhibitor compound for 72 hours. After the treatment period, leukemic cells are collected and re-plated in semi-solid methylcellulose medium to assess colony forming ability. 500 leukemic cells are plated per dish in 35 mm plates in 1.1 ml of MethoCult (available from STEMCELL Technologies, Vancouver, Canada). Triplicate plates are prepared per treatment, and cultures are grown for 14-16 days in a CO2 incubator. After the culture period colonies are counted under a dissecting microscope.

With `CC(C)(C)c1cccc(-c2cc3cc(/C=C/C(=O)O)ccc3[nH]2)c1` [Compound 026], the “RA metabolism, basal and RA-induced” value in assay [1] is “efficiently blocked basal and RA-induced RA metabolism”. Besides, the “Expression of Cyp26a1 and Crabp2 in bone marrow mononuclear cells” value in assay [2] was “both induced”. In assay [3], the “RA target gene transcription on co-treatment with RA” value is “enhanced RA target gene transcription, and prolonged this response to at least 72 hours”. For the same compound, the “Bglap and Ibsp expression” value in the assay with MC3T3-E1 cells (10 nmol RA plus 1 μM compound) was “suppressing Bglap and Ibsp expression”; in the assay on MC3T3-E1 cells (10 μM compound, osteogenic medium) it was “blocked their expression”. Further, the Cyp26b1 gene expression entry with MC3T3-E1 cells (compared with controls) is recorded as “dramatic upregulation of Cyp26b1”. Also, the “Calcified matrix (alizarin red staining)” value in the assay on MC3T3-E1 cells (osteogenic medium, 21 days, increasing concentrations) is “reduced by the presence of compound 026 in a dose-dependent manner”. The Colony forming units result in the assay on THP-1 cells was “rescued the effects of RA and decreased colony forming units”.
